From the supplement of paper PMC10307832

Key:
Assay in all cases: relative viability (nuclei count vs DMSO), 5 days (fraction); higher = more cells survive
Lestaurtinib + Alpelisib = compound: C[C@]12O[C@H](C[C@]1(O)CO)n1c3ccccc3c3c4c(c5c6ccccc6n2c5c31)CNC4=O [Lestaurtinib] + Cc1nc(NC(=O)N2CCC[C@H]2C(N)=O)sc1-c1ccnc(C(C)(C)C(F)(F)F)c1 [Alpelisib] (partner 2 µM)
In short: (§1)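 Cells from lung cancer lines were seeded into 1536-well plates and, one day later, dosed by pin tool. Treatments were either a single drug or a fixed dose of an anchor drug with five library-drug doses (not always all listed) in √10 steps. After 5 days, nuclei were stained in a one-step fixation (final 0.05% Triton X-100, 1% formaldehyde, 1 ug/ml Hoechst) and counted on 4× images, and relative viability is the treated-to-vehicle nuclei ratio, as the median of duplicate plates.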

[1] = compound: C[C@]12O[C@H](C[C@]1(O)CO)n1c3ccccc3c3c4c(c5c6ccccc6n2c5c31)CNC4=O [Lestaurtinib] + C[C@@H](Oc1cc(-c2cnn(C3CCNCC3)c2)cnc1N)c1c(Cl)ccc(F)c1Cl [Crizotinib] (partner 1 µM)
In short: as §1

Lestaurtinib + Foretinib = compound: C[C@]12O[C@H](C[C@]1(O)CO)n1c3ccccc3c3c4c(c5c6ccccc6n2c5c31)CNC4=O [Lestaurtinib] + COc1cc2c(Oc3ccc(NC(=O)C4(C(=O)Nc5ccc(F)cc5)CC4)cc3F)ccnc2cc1OCCCN1CCOCC1 [Foretinib] (partner 0.25 µM)
In short: as §1

Lestaurtinib + OSI-027 = compound: C[C@]12O[C@H](C[C@]1(O)CO)n1c3ccccc3c3c4c(c5c6ccccc6n2c5c31)CNC4=O [Lestaurtinib] + COc1cccc2cc(-c3nc([C@H]4CC[C@H](C(=O)O)CC4)n4ncnc(N)c34)[nH]c12 [OSI-027] (partner 0.5 µM)
In short: as §1

Cell Line: NCI-H2405
- relative viability (Lestaurtinib + Alpelisib; first compound 0.005 µM): 0.842
- relative viability (Lestaurtinib + Alpelisib; first compound 0.01581 µM): 0.643
- relative viability (Lestaurtinib + Alpelisib; first compound 0.05 µM): 0.488
- relative viability (Lestaurtinib + Alpelisib; first compound 0.1581 µM): 0.367
- relative viability (Lestaurtinib + Alpelisib; first compound 0.5 µM): 0.258
- relative viability ([1]; first compound 0.005 µM): 0.852
- relative viability ([1]; first compound 0.01581 µM): 0.87
- relative viability ([1]; first compound 0.05 µM): 0.767
- relative viability ([1]; first compound 0.1581 µM): 0.698
- relative viability ([1]; first compound 0.5 µM): 0.578
- relative viability (Lestaurtinib + Foretinib; first compound 0.005 µM): 1.11
- relative viability (Lestaurtinib + Foretinib; first compound 0.01581 µM): 1.08
- relative viability (Lestaurtinib + Foretinib; first compound 0.05 µM): 1.05
- relative viability (Lestaurtinib + Foretinib; first compound 0.1581 µM): 0.805
- relative viability (Lestaurtinib + Foretinib; first compound 0.5 µM): 0.384
- relative viability (Lestaurtinib + OSI-027; first compound 0.005 µM): 0.647
- relative viability (Lestaurtinib + OSI-027; first compound 0.01581 µM): 0.685
- relative viability (Lestaurtinib + OSI-027; first compound 0.05 µM): 0.59
- relative viability (Lestaurtinib + OSI-027; first compound 0.1581 µM): 0.487
- relative viability (Lestaurtinib + OSI-027; first compound 0.5 µM): 0.414

Cell Line: NCI-H3122
- relative viability (Lestaurtinib + Alpelisib; first compound 0.005 µM): 0.92
- relative viability (Lestaurtinib + Alpelisib; first compound 0.01581 µM): 0.983
- relative viability (Lestaurtinib + Alpelisib; first compound 0.05 µM): 0.932
- relative viability (Lestaurtinib + Alpelisib; first compound 0.1581 µM): 0.841
- relative viability (Lestaurtinib + Alpelisib; first compound 0.5 µM): 0.48
- relative viability ([1]; first compound 0.005 µM): 0.321
- relative viability ([1]; first compound 0.01581 µM): 0.286
- relative viability ([1]; first compound 0.05 µM): 0.322
- relative viability ([1]; first compound 0.1581 µM): 0.33
- relative viability ([1]; first compound 0.5 µM): 0.273
- relative viability (Lestaurtinib + Foretinib; first compound 0.005 µM): 1.06
- relative viability (Lestaurtinib + Foretinib; first compound 0.01581 µM): 0.984
- relative viability (Lestaurtinib + Foretinib; first compound 0.05 µM): 1.01
- relative viability (Lestaurtinib + Foretinib; first compound 0.1581 µM): 1.03
- relative viability (Lestaurtinib + Foretinib; first compound 0.5 µM): 0.793
- relative viability (Lestaurtinib + OSI-027; first compound 0.005 µM): 1.36
- relative viability (Lestaurtinib + OSI-027; first compound 0.01581 µM): 1.4
- relative viability (Lestaurtinib + OSI-027; first compound 0.05 µM): 0.99
- relative viability (Lestaurtinib + OSI-027; first compound 0.1581 µM): 0.875
- relative viability (Lestaurtinib + OSI-027; first compound 0.5 µM): 0.339

Cell Line: PC-3 [JPC-3]
- relative viability (Lestaurtinib + Alpelisib; first compound 0.005 µM): 1.03
- relative viability (Lestaurtinib + Alpelisib; first compound 0.01581 µM): 1.1
- relative viability (Lestaurtinib + Alpelisib; first compound 0.05 µM): 0.985
- relative viability (Lestaurtinib + Alpelisib; first compound 0.1581 µM): 0.913
- relative viability (Lestaurtinib + Alpelisib; first compound 0.5 µM): 0.65
- relative viability ([1]; first compound 0.005 µM): 0.975
- relative viability ([1]; first compound 0.01581 µM): 1.15
- relative viability ([1]; first compound 0.05 µM): 1.01
- relative viability ([1]; first compound 0.1581 µM): 1.15
- relative viability ([1]; first compound 0.5 µM): 0.693
- relative viability (Lestaurtinib + Foretinib; first compound 0.005 µM): 1.01
- relative viability (Lestaurtinib + Foretinib; first compound 0.01581 µM): 1.1
- relative viability (Lestaurtinib + Foretinib; first compound 0.05 µM): 0.938
- relative viability (Lestaurtinib + Foretinib; first compound 0.1581 µM): 0.902
- relative viability (Lestaurtinib + Foretinib; first compound 0.5 µM): 0.558
- relative viability (Lestaurtinib + OSI-027; first compound 0.005 µM): 0.809
- relative viability (Lestaurtinib + OSI-027; first compound 0.01581 µM): 0.803
- relative viability (Lestaurtinib + OSI-027; first compound 0.05 µM): 0.662
- relative viability (Lestaurtinib + OSI-027; first compound 0.1581 µM): 0.65
- relative viability (Lestaurtinib + OSI-027; first compound 0.5 µM): 0.439

Cell Line: PC-14
- relative viability (Lestaurtinib + Alpelisib; first compound 0.005 µM): 0.973
- relative viability (Lestaurtinib + Alpelisib; first compound 0.01581 µM): 1.01
- relative viability (Lestaurtinib + Alpelisib; first compound 0.05 µM): 0.465
- relative viability (Lestaurtinib + Alpelisib; first compound 0.1581 µM): 0.602
- relative viability (Lestaurtinib + Alpelisib; first compound 0.5 µM): 0.471
- relative viability ([1]; first compound 0.005 µM): 0.883
- relative viability ([1]; first compound 0.01581 µM): 0.958
- relative viability ([1]; first compound 0.05 µM): 0.786
- relative viability ([1]; first compound 0.1581 µM): 0.595
- relative viability ([1]; first compound 0.5 µM): 0.688
- relative viability (Lestaurtinib + Foretinib; first compound 0.005 µM): 0.963
- relative viability (Lestaurtinib + Foretinib; first compound 0.01581 µM): 1.09
- relative viability (Lestaurtinib + Foretinib; first compound 0.05 µM): 0.619
- relative viability (Lestaurtinib + Foretinib; first compound 0.1581 µM): 0.517
- relative viability (Lestaurtinib + Foretinib; first compound 0.5 µM): 0.687
- relative viability (Lestaurtinib + OSI-027; first compound 0.005 µM): 0.805
- relative viability (Lestaurtinib + OSI-027; first compound 0.01581 µM): 0.592
- relative viability (Lestaurtinib + OSI-027; first compound 0.05 µM): 0.609
- relative viability (Lestaurtinib + OSI-027; first compound 0.1581 µM): 0.623
- relative viability (Lestaurtinib + OSI-027; first compound 0.5 µM): 0.116

Cell Line: RERF-LC-KJ
- relative viability (Lestaurtinib + Alpelisib; first compound 0.005 µM): 0.888
- relative viability (Lestaurtinib + Alpelisib; first compound 0.01581 µM): 0.689
- relative viability (Lestaurtinib + Alpelisib; first compound 0.05 µM): 0.591
- relative viability (Lestaurtinib + Alpelisib; first compound 0.1581 µM): 0.535
- relative viability (Lestaurtinib + Alpelisib; first compound 0.5 µM): 0.445
- relative viability ([1]; first compound 0.005 µM): 0.856
- relative viability ([1]; first compound 0.01581 µM): 0.969
- relative viability ([1]; first compound 0.05 µM): 0.674
- relative viability ([1]; first compound 0.1581 µM): 0.799
- relative viability ([1]; first compound 0.5 µM): 0.6
- relative viability (Lestaurtinib + Foretinib; first compound 0.005 µM): 0.914
- relative viability (Lestaurtinib + Foretinib; first compound 0.01581 µM): 1.04
- relative viability (Lestaurtinib + Foretinib; first compound 0.05 µM): 0.762
- relative viability (Lestaurtinib + Foretinib; first compound 0.1581 µM): 0.749
- relative viability (Lestaurtinib + Foretinib; first compound 0.5 µM): 0.816
- relative viability (Lestaurtinib + OSI-027; first compound 0.005 µM): 0.525
- relative viability (Lestaurtinib + OSI-027; first compound 0.01581 µM): 0.577
- relative viability (Lestaurtinib + OSI-027; first compound 0.05 µM): 0.491
- relative viability (Lestaurtinib + OSI-027; first compound 0.1581 µM): 0.461
- relative viability (Lestaurtinib + OSI-027; first compound 0.5 µM): 0.315

Cell Line: SK-LU-1
- relative viability (Lestaurtinib + Alpelisib; first compound 0.005 µM): 0.652
- relative viability (Lestaurtinib + Alpelisib; first compound 0.01581 µM): 0.613
- relative viability (Lestaurtinib + Alpelisib; first compound 0.05 µM): 0.436
- relative viability (Lestaurtinib + Alpelisib; first compound 0.1581 µM): 0.536
- relative viability (Lestaurtinib + Alpelisib; first compound 0.5 µM): 0.258
- relative viability ([1]; first compound 0.005 µM): 0.663
- relative viability ([1]; first compound 0.01581 µM): 0.915
- relative viability ([1]; first compound 0.05 µM): 0.433
- relative viability ([1]; first compound 0.1581 µM): 0.516
- relative viability ([1]; first compound 0.5 µM): 0.312
- relative viability (Lestaurtinib + Foretinib; first compound 0.005 µM): 0.763
- relative viability (Lestaurtinib + Foretinib; first compound 0.01581 µM): 0.707
- relative viability (Lestaurtinib + Foretinib; first compound 0.05 µM): 0.4
- relative viability (Lestaurtinib + Foretinib; first compound 0.1581 µM): 0.38
- relative viability (Lestaurtinib + Foretinib; first compound 0.5 µM): 0.205
- relative viability (Lestaurtinib + OSI-027; first compound 0.005 µM): 0.296
- relative viability (Lestaurtinib + OSI-027; first compound 0.01581 µM): 0.255
- relative viability (Lestaurtinib + OSI-027; first compound 0.05 µM): 0.211
- relative viability (Lestaurtinib + OSI-027; first compound 0.1581 µM): 0.295
- relative viability (Lestaurtinib + OSI-027; first compound 0.5 µM): 0.181

Cell Line: SK-MES-1
- relative viability (Lestaurtinib + Alpelisib; first compound 0.005 µM): 0.862
- relative viability (Lestaurtinib + Alpelisib; first compound 0.01581 µM): 0.337
- relative viability (Lestaurtinib + Alpelisib; first compound 0.05 µM): 0.332
- relative viability (Lestaurtinib + Alpelisib; first compound 0.1581 µM): 0.302
- relative viability (Lestaurtinib + Alpelisib; first compound 0.5 µM): 0.229
- relative viability ([1]; first compound 0.005 µM): 1.02
- relative viability ([1]; first compound 0.01581 µM): 0.964
- relative viability ([1]; first compound 0.05 µM): 0.92
- relative viability ([1]; first compound 0.1581 µM): 0.505
- relative viability ([1]; first compound 0.5 µM): 0.281
- relative viability (Lestaurtinib + Foretinib; first compound 0.005 µM): 0.906
- relative viability (Lestaurtinib + Foretinib; first compound 0.01581 µM): 0.866
- relative viability (Lestaurtinib + Foretinib; first compound 0.05 µM): 0.599
- relative viability (Lestaurtinib + Foretinib; first compound 0.1581 µM): 0.33
- relative viability (Lestaurtinib + Foretinib; first compound 0.5 µM): 0.334
- relative viability (Lestaurtinib + OSI-027; first compound 0.005 µM): 0.536
- relative viability (Lestaurtinib + OSI-027; first compound 0.01581 µM): 0.486
- relative viability (Lestaurtinib + OSI-027; first compound 0.05 µM): 0.407
- relative viability (Lestaurtinib + OSI-027; first compound 0.1581 µM): 0.342
- relative viability (Lestaurtinib + OSI-027; first compound 0.5 µM): 0.151

Cell Line: SW 1573
- relative viability (Lestaurtinib + Alpelisib; first compound 0.005 µM): 0.822
- relative viability (Lestaurtinib + Alpelisib; first compound 0.01581 µM): 0.841
- relative viability (Lestaurtinib + Alpelisib; first compound 0.05 µM): 0.401
- relative viability (Lestaurtinib + Alpelisib; first compound 0.1581 µM): 0.568
- relative viability (Lestaurtinib + Alpelisib; first compound 0.5 µM): 0.379
- relative viability ([1]; first compound 0.005 µM): 0.929
- relative viability ([1]; first compound 0.01581 µM): 0.88
- relative viability ([1]; first compound 0.05 µM): 0.544
- relative viability ([1]; first compound 0.1581 µM): 0.423
- relative viability ([1]; first compound 0.5 µM): 0.343
- relative viability (Lestaurtinib + Foretinib; first compound 0.005 µM): 0.895
- relative viability (Lestaurtinib + Foretinib; first compound 0.01581 µM): 0.889
- relative viability (Lestaurtinib + Foretinib; first compound 0.05 µM): 0.826
- relative viability (Lestaurtinib + Foretinib; first compound 0.1581 µM): 0.668
- relative viability (Lestaurtinib + Foretinib; first compound 0.5 µM): 0.518
- relative viability (Lestaurtinib + OSI-027; first compound 0.005 µM): 0.67
- relative viability (Lestaurtinib + OSI-027; first compound 0.01581 µM): 0.561
- relative viability (Lestaurtinib + OSI-027; first compound 0.05 µM): 0.482
- relative viability (Lestaurtinib + OSI-027; first compound 0.1581 µM): 0.449
- relative viability (Lestaurtinib + OSI-027; first compound 0.5 µM): 0.131
